Test results: publication PMC4192545, “Suramin Inhibits Hsp104 ATPase and Disaggregase Activity” (PLoS ONE, 2014)
“And” between values parts separate entries of the source, which are not always exact repeats. Equal values may be shown once.

Target: T1, Hsp104 (Saccharomyces cerevisiae, UniProt P31539)
T1 construct: made in house; host or cells: E. coli BL21-DE3 RIL
Test: Luciferase disaggregation/reactivation assay, Hsp104 with ATP:ATPγS
Format: biochemical, yeast
Experimental: Luciferase reactivation was performed as described, [37]. To assemble aggregates, firefly luciferase (50 µM) in luciferase refolding buffer (LRB, 25 mM HEPES-KOH, 7.4, 150 mM KAOc, 10 mM MgAOc, 10 mM DTT) with 6 M urea was incubated at 30°C for 20 min. Luciferase was then rapidly diluted 100-fold into LRB, divided into 100 µL aliquots, snap frozen in liquid N2, and stored at −80°C. For reactivation assays, aggregated luciferase (50 nM) was incubated with Hsp104 (1 µM hexamer), plus 2.6 mM ATPγS, 2.6 mM ATP and an ATP regeneration system (1 mM creatine phosphate, 0.25 µM creatine kinase (Roche Applied Science)) for 90 minutes at 25°C. Luciferase assay system was purchased from Promega. Luciferase activity was assessed by luminescence measured on a Safire^2 microplate reader (Tecan, Männedorf, Switzerland). The half maximal inhibitory concentration (IC50) was calculating by fitting luciferase-refolding data at different Suramin concentrations with Prism (GraphPad Software, Inc., La Jolla, CA).

T1 sequence (P31539 whole entry): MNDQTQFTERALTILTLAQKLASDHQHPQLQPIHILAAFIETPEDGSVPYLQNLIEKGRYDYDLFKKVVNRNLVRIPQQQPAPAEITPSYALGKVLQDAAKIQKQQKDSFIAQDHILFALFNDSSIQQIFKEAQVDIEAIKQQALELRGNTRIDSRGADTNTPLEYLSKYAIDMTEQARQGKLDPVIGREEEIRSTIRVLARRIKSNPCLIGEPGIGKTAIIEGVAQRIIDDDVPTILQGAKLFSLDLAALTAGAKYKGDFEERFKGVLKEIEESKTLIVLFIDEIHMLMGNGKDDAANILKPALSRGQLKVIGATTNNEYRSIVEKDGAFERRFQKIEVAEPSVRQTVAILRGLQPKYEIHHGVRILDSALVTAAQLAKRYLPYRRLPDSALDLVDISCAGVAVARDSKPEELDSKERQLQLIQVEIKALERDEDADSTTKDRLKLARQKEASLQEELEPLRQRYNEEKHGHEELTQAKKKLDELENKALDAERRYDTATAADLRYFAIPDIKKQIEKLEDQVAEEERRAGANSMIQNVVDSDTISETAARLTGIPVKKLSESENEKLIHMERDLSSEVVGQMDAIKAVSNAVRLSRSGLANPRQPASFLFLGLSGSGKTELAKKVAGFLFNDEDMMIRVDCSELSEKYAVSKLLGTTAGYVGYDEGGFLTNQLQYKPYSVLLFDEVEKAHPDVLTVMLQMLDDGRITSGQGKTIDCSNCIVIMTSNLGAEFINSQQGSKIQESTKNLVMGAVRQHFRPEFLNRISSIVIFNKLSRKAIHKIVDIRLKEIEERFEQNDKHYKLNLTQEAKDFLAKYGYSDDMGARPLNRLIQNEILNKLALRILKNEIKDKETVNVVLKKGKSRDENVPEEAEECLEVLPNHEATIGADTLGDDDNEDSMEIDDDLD

SMILES: Cc1ccc(C(=O)Nc2ccc(S(=O)(=O)O)c3cc(S(=O)(=O)O)cc(S(=O)(=O)O)c23)cc1NC(=O)c1cccc(NC(=O)Nc2cccc(C(=O)Nc3cc(C(=O)Nc4ccc(S(=O)(=O)O)c5cc(S(=O)(=O)O)cc(S(=O)(=O)O)c45)ccc3C)c2)c1 [Suramin]
- Normalized Luciferase Refolding Activity (Figure 3D, Hsp104 alone (104), ATP:ATPγS 1:1, Suramin 25 µM): 0.14
- Normalized Luciferase Refolding Activity (Figure 3D, Hsp104 alone (104), ATP:ATPγS 1:1, Suramin 100 µM): 0.00
- Hsp104^WT refolding activity (Suramin 1 µM): 100%
- Normalized Luciferase Refolding Activity (Suramin 1 µM, 90 min 25°C, ATP:ATPγS 1:1, Figure 3B): 0.99
- Normalized Luciferase Refolding Activity (Suramin 5 µM, 90 min 25°C, ATP:ATPγS 1:1, Figure 3B): 0.63
- Normalized Luciferase Refolding Activity (Suramin 10 µM, 90 min 25°C, ATP:ATPγS 1:1, Figure 3B): 0.50
- Normalized Luciferase Refolding Activity (Suramin 25 µM, 90 min 25°C, ATP:ATPγS 1:1, Figure 3B): 0.14
- Hsp104 refolding activity (Suramin 50 µM): practically inactive
- Normalized Luciferase Refolding Activity (Suramin 50 µM, 90 min 25°C, ATP:ATPγS 1:1, Figure 3B): 0.03
- Effect on Hsp104 refolding of denatured luciferase (Suramin 100 µM): completely ablated the ability of Hsp104 to refold denatured luciferase
- Normalized Luciferase Refolding Activity (Suramin 100 µM, 90 min 25°C, ATP:ATPγS 1:1, Figure 3B): 0.00
- IC50 (fit of luciferase-refolding data, ATP:ATPγS 1:1, read-out: IC50, Hsp104^WT luciferase refolding): ~10.1 µM and 10.1 µM
